Reference: patent US9217014B2, “Antifungal agents and uses thereof” (Cidara Therapeutics, Inc., priority 2011, dated 2015)
Where two headings read alike, the source gives them in different places.

Assays:
[1] = tested on: C. albicans R303; experiment: mouse candidiasis infection model, IP administration, kidney fungal burden; type: in vivo; settings: for overall performance in reducing C. albicans CFUs in the kidneys of the mice: conclusion over all runs
Method in brief: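 Female CD-1 mice rendered neutropenic with IP cyclophosphamide 150 mg/kg at days −4 and −1. Mice infected IV via tail vein with C. albicans R303, then given test compounds IP 2 h post-infection. Kidney fungal burden determined as CFU by plate counts; values are means of four mice.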

[2] = Pharmacokinetics in beagle dogs, intravenous; type: in vivo; settings: for CI / half-life / Vd: 1.4 mg/kg intravenous slow bolus, mean ± SEM, n = 4 beagle dogs; for half-life / Vd: dog; for half-life: read-out: T ½ (converted); for Vd: read-out: Vz
Method: The test articles were administered to beagle dogs weighing approximately 6-10 kg. Each test article was dosed at 1.4 mg/kg in aqueous saline (with or without 0.5% Tween) over course of 1-10 minutes. […] The dogs were fasted at least 12 hours prior to each dosing and offered food after the 4-hour blood sample was taken; water was withheld for 1 hour prior to and 4 hours following each dosing event. The dose for each animal was based on its most recent body weight. The test article was injected intravenously via a catheter placed in the cephalic vein as a slow bolus.
Blood was collected via the jugular vein. All blood samples (˜1 mL each) were collected into K3EDTA tubes. Following blood collection, the samples were immediately inverted several times and were held on wet ice pending centrifugation. The samples were centrifuged within ˜30 minutes of collection under refrigeration (˜5° C. for ˜10 minutes at ˜2000 g) to obtain plasma. The plasma was frozen immediately on dry ice after separation. The plasma samples were stored at approximately −70° C. until analysis.
Plasma (100 μL) was precipitated with 400 μL of 0.1% formic acid in acetonitrile containing the internal standard (100 ng/mL pneumocandin). The samples were then capped and vortexed for about 30 seconds followed by centrifugation at 14,000 rpm at room temperature for 10 minutes. Following centrifugation 200 μL of supernatant was transferred to plastic autosampler vials containing 200 μL of 0.1% formic acid in water and vortexed. Samples were then analyzed by LCMSMS.
All pharmacokinetic calculations were performed using WinNonlin version 4.1 (Pharsight Corp) by noncompartmental analysis.

[3] = tested on: Candida spp.; experiment: MIC values versus Candida spp. at 24 and 48 hours; type: cell-based; settings: presence and absence of 50% human serum
Method: MIC values (μg/mL) of anidulafungin, caspofungin, amphotericin B, compound 1, and compound 16 against various Candida species in the presence and absence of 50% human serum were obtained as follows.
Test organisms were obtained from the American Type Culture Collection (Manassas, Va.). The isolates were maintained at −80° C., then thawed and sub-cultured prior to testing.
The MIC assay method followed the procedure described by the Clinical and Laboratory Standards Institute and employed automated liquid handlers to conduct serial dilutions and liquid transfers. The wells in columns 1-12 in standard 96-well microdilution plates were filled with 150 μL of DMSO. These would become the ‘mother plates’ from which ‘daughter’ or test plates would be prepared. The drugs (150 μL at 80× the desired top concentration in the test plates) were dispensed into the appropriate well in column 1 of the mother plates and mixed. Serial 1:1 dilutions were made through Column 11 in the “mother plate”. The wells of column 12 contained no drug and were the organism growth control wells. […]
Plates were covered with a lid, placed in plastic bags, and incubated at 35° C. The Candida isolates were read after 24 h incubation and again at 48 h. […]
For Candida species, the Minimal Inhibitory Concentration (MIC) was read per CLSI guidelines.

[4] = Solubility in aqueous buffers of varying pH; type: physicochemical; settings: for solubility: ambient temperature, compound 1 as acetate salt
Method: The solubility of compound 1 (acetate salt) was measured in aqueous buffers of varying pH to assess this compound's suitability for formulation in an aqueous carrier for administration by injection (e.g., intravenous or intramuscular injection).

[5] = Solubility in non-aqueous solvents; type: physicochemical; settings: organic solvent or mixture, compound 1 as acetate salt
Method: The solubility of compound 1 (acetate salt) was also measured in non-aqueous solvents to assess this compound's suitability for formulation in non-aqueous carriers.

[6] = Candida albicans, R303, ip, 24 h, Fifth run, IP 0.5 mg/kg, read-out: Difference from 24-h control
[7] = Candida albicans, R303, ip, 24 h, Fifth run, IP 1.5 mg/kg, read-out: Difference from 24-h control
[8] = Candida albicans, R303, ip, 24 h, Fifth run, IP 4.5 mg/kg, read-out: Difference from 24-h control
[9] = Fifth run, IP 0.5 mg/kg, kidneys 24 h after infection
[10] = Fifth run, IP 1.5 mg/kg, kidneys 24 h after infection
[11] = Fifth run, IP 4.5 mg/kg, kidneys 24 h after infection
[12] = beagle dogs, 1.4 mg/kg intravenous

Question: For `CCCCCOc1ccc(-c2ccc(-c3ccc(C(=O)N[C@H]4C[C@@H](O)C(NCC[N+](C)(C)C)NC(=O)C5[C@@H](O)[C@@H](C)CN5C(=O)C([C@@H](C)O)NC(=O)C([C@H](O)[C@@H](O)c5ccc(O)cc5)NC(=O)C5C[C@@H](O)CC5C(=O)C([C@@H](C)O)NC4=O)cc3)cc2)cc1` (some centres unmarked) [compound 16], which log reduction at 0.5 mg/kg [1, 6] is on record?
Answer: 3.22

Question: What about the log reduction at 1.5 mg/kg [1, 7] of the same compound?
Answer: 3.74

Question: What about the log reduction at 4.5 mg/kg [1, 8] of the same compound?
Answer: 4.08

Question: What about the “Mean log10 CFU/kidneys (±SEM)” value [1, 9] of the same compound?
Answer: 1.91 ± 0.34 log10 CFU/kidneys

Question: And the “Mean log10 CFU/kidneys (±SEM)” value [1, 10]?
Answer: 1.39 ± 0.16 log10 CFU/kidneys

Question: And the “Mean log10 CFU/kidneys (±SEM)” value [1, 11]?
Answer: 1.05 ± 0.36 log10 CFU/kidneys

Question: What about the “overall performance in reducing C. albicans CFUs in the kidneys of the mice” value [1] of the same compound?
Answer: performed strongly

Question: And the CI [2]?
Answer: 0.365 ± 0.014 mL/min/kg

Question: What about the half-life ([2]; plasma) of the same compound?
Answer: 27.6 ± 1.11 h

Question: What about the Vd ([2]; plasma) of the same compound?
Answer: 0.874 ± 0.0639 L/kg

Question: And the “activity against Candida strains relative to anidulafungin (MIC)” value [3]?
Answer: retain their activity

Question: With `CCCCCOc1ccc(-c2ccc(-c3ccc(C(=O)N[C@H]4C[C@@H](O)C(OCC[N+](C)(C)C)NC(=O)C5[C@@H](O)[C@@H](C)CN5C(=O)C([C@@H](C)O)NC(=O)C([C@H](O)[C@@H](O)c5ccc(O)cc5)NC(=O)C5C[C@@H](O)CN5C(=O)C([C@@H](C)O)NC4=O)cc3)cc2)cc1` (some centres unmarked) [compound 1] as the compound, how does the log reduction at 0.5 mg/kg [1, 6] read?
Answer: 1.47

Question: And the log reduction at 1.5 mg/kg [1, 7]?
Answer: 3.58

Question: And the log reduction at 4.5 mg/kg [1, 8]?
Answer: 4.81

Question: What about the log reduction at 5 mg/kg ([1]; Candida albicans, R303, ip, 24 h, First run, IP 5 mg/kg, read-out: Difference from 24-h control) of the same compound?
Answer: 4.8

Question: And the log reduction at 0.5 mg/kg ([1]; Candida albicans, R303, ip, 24 h, Second run, IP 0.5 mg/kg, read-out: Difference from 24-h control)?
Answer: 2.08

Question: And the log reduction at 1.5 mg/kg ([1]; Candida albicans, R303, ip, 24 h, Second run, IP 1.5 mg/kg, read-out: Difference from 24-h control)?
Answer: 3.05

Question: And the log reduction at 4.5 mg/kg ([1]; Candida albicans, R303, ip, 24 h, Second run, IP 4.5 mg/kg, read-out: Difference from 24-h control)?
Answer: 3.9

Question: What about the “Mean log10 CFU/kidneys (±SEM)” value [1, 9] of the same compound?
Answer: 3.67 ± 0.07 log10 CFU/kidneys

Question: What about the “Mean log10 CFU/kidneys (±SEM)” value [1, 10] of the same compound?
Answer: 1.56 ± 0.15 log10 CFU/kidneys

Question: What about the “Mean log10 CFU/kidneys (±SEM)” value [1, 11] of the same compound?
Answer: 0.33 ± 0.33 log10 CFU/kidneys

Question: What about the “Mean log10 CFU/kidneys (±SD)” value ([1]; First run, IP 5 mg/kg, neutropenic mice, kidneys 24 h after infection) of the same compound?
Answer: 0.40 ± 0.80 log10 CFU/kidneys

Question: And the “Mean log10 CFU/kidneys (±SEM)” value ([1]; Second run, IP 0.5 mg/kg, kidneys 24 h after infection)?
Answer: 2.80 ± 0.11 log10 CFU/kidneys

Question: And the “Mean log10 CFU/kidneys (±SEM)” value ([1]; Second run, IP 1.5 mg/kg, kidneys 24 h after infection)?
Answer: 1.83 ± 0.14 log10 CFU/kidneys

Question: And the “Mean log10 CFU/kidneys (±SEM)” value ([1]; Second run, IP 4.5 mg/kg, kidneys 24 h after infection)?
Answer: 0.98 ± 0.33 log10 CFU/kidneys

Question: What about the “overall performance in reducing C. albicans CFUs in the kidneys of the mice” value [1] of the same compound?
Answer: performed strongly

Question: And the CI [2]?
Answer: 0.301 ± 0.0243 mL/min/kg

Question: And the “circulating half-life (in words)” value [2, 12]?
Answer: surprisingly long circulating half-life

Question: And the “volume of distribution (in words)” value [2, 12]?
Answer: surprisingly large volume of distribution

Question: And the half-life ([2]; beagle, in vivo, iv, 1.4 mg/kg)?
Answer: 53.1 ± 3.93 h

Question: What about the Vd ([2]; in vivo) of the same compound?
Answer: 1.36 ± 0.0619 L/kg

Question: And the “activity against Candida strains relative to anidulafungin (MIC)” value [3]?
Answer: retain their activity

Question: What about the solubility ([4]; aqueous buffer, pH 3 (0.01M formate buffer)) of the same compound?
Answer: > 15 mg/mL

Question: And the solubility ([4]; aqueous buffer, pH 4.6 (0.1M acetate buffer))?
Answer: > 15 mg/mL

Question: And the solubility ([4]; aqueous buffer, pH 5.6 (0.1M acetate buffer))?
Answer: > 15 mg/mL

Question: What about the solubility ([4]; aqueous buffer, pH 7.4 (0.1M phosphate buffer)) of the same compound?
Answer: 0.05 mg/mL

Question: And the solubility ([4]; aqueous buffer, pH 8.5 (0.01M TRIS buffer))?
Answer: > 15 mg/mL

Question: What about the “aqueous solubility compared with anidulafungin (in words)” value ([4]; over a broad pH range) of the same compound?
Answer: dramatically greater aqueous solubility than anidulafungin

Question: And the solubility ([4]; saline or isotonic, 0.9% saline)?
Answer: 4.6 mg/mL

Question: What about the solubility ([4]; simulated gastric fluid, pH 1 (0.1M HCl)) of the same compound?
Answer: > 15 mg/mL

Question: What about the solubility ([5]; Ethanol (EtOH)) of the same compound?
Answer: > 13.7 mg/mL

Question: What about the solubility ([5]; Glycerol) of the same compound?
Answer: > 19.4 mg/mL

Question: And the solubility ([5]; PEG400)?
Answer: > 34.1 mg/mL

Question: What about the solubility ([5]; Propylene glycol(PG)) of the same compound?
Answer: > 18.4 mg/mL
